# Read-outs that look alike come from different tables or passages of the source.
# How the values were obtained:
# B16f10 melanoma cells = assay: In vivo augmentation of daunorubicin anti-tumor activity in a B16 melanoma lung metastasis model; set-up: species or system mice; conditions: Daunorubicin 12.5 mg/kg alone, 24 hours after cells
# Experimental: The procedure of Example III was repeated employing daunorubicin in place of BCNV. Groups of six mice were injected with B16f10 melanoma cells and 24 hours later received saline, 4 mg/kg of DPPE alone, a non-lethal dose of daunorubicin alone (12.5 mg/kg) or DPPE (4, 25 or 50 mg/kg) one hour prior to daunorubicin (12.5 mg/kg). All animals were followed to death or for 60-days post injection, and sacrificed for lung metastases.
# bone marrow progenitors = conditions: for CFU-C/10⁴ cells (No. of bone marrow colonies) / R.C.S. (Relative Cell Survival): 5FU lethal dose (7.5mg) alone; for R.C.S. (Relative Cell Survival) / R.C.S.: saline = 1.0
# Experimental: The DPPE and saline were administered 90 minutes prior to the 5FU. Bone marrow cell counts were made at 24 hours and 48 hours post administration.
# Experiments paralleling those described above with 5FU were carried out employing a lethal dose of adriamycin (20mg/kg).
# C-3 fibrosarcoma cells = assay: In vivo augmentation of adriamycin anti-tumor activity in a murine sarcoma model; set-up: species or system C3H mice; conditions: intraperitoneally day 1, followed 60 days
# Experimental: C-3 fibrosarcoma cells (3 x 10⁵) were injected into the left gluteal region of C3H mice on day 0. On day 1, the mice were provided with treatment by a combination of DPPE and adriamycin, administered intraperitoneally. The DPPE was administered 60 minutes prior to administration of the adriamycin. Mice also were administered with saline, DPPE alone and adriamycin alone.
# Animals in the experiments (n=12) were followed for 60 days. At the end of the experimental period, those animals free of palpable tumors were considered cured.
# [1] = test system: virally-infected non-senescing transformed spleen-derived lymphocytes (S-10); assay: Thymidine incorporation and cytotoxicity in virally-infected transformed lymphocytes; type: cell-based, BALB/C origin
# Experimental: The experiment of Example VI was repeated employing virally-infected non-senescing transformed spleen-derived lymphocytes (S-10) also of BALB/C origin with 0.25 nM of ³H-thymidine added. The results were plotted graphically and appear as Figures 3 and 4 respectively. As may be seen therein, in contrast to Figures 1 and 2, 25 µM of DPPE caused approximately 50% cytotoxicity to the virally-infected cells. When adjusted for cell number, thymidine incorporation increased at cytotoxic concentrations of DPPE (10 to 25 µM).
# ulcer formation = conditions: in the presence of noxious agents, such as alcohol and cysteamine; see US-A-4,829,068; cited from earlier work
# certain B cells = assay: Interleukin-2 stimulated antibody formation in B cells; type: cell-based
# Source text: As with bone marrow cells, the treatment of normal proliferating lymphocytes (immune cells), according to the invention, results in a dose-dependent blocking of DNA synthesis and a shut-down of these cells without causing cytotoxicity. The antagonist has an effect on both T-lymphocytes and B-lymphocytes in the immune system. […] DPPE also blocks the stimulation of antibody formation by the mediator interleukin-2 in certain B cells, resulting is a decrease in antibody formation.
# [2] = test system: patients with advanced cancer; assay: Clinical study in patients with advanced cancer
# Experimental: A clinical study was carried out with 14 patients with advanced cancer. • (a) DPPE alone was administered to patients to determine a safe dose range in humans.
# malignant cells = conditions: as described in US-A- No. 4,803,227; cited from earlier work
# [3] = test system: Spleen cells from BALB/C mice; assay: Thymidine incorporation into DNA of Concanavalin A-stimulated lymphocytes; type: cell-based
# Experimental: Spleen cells from BALB/C mice were stimulated with Concanavalin A (5 µg/ml) for thymidine incorporation. The cells then were treated with varying does of DPPE and the level of thymidine incorporated was determined. The results were plotted graphically and appear as Figure 1.
# The experiment was repeated using 2.5 µg/ml of Concanavalin A in place of 5 µg/ml and 2% fetal calf serum in place of 10%. The results obtained are illustrated in Figure 2.
# [4] = test system: human breast cancer cell (MCF-7); assay: Thymidine incorporation and cytotoxicity in breast cancer cells; type: cell-based; conditions: 0.25 nM of thymidine, Figure 5
# Experimental: The experiment was again repeated using human breast cancer cell (MCF-7) with 0.25 nM of thymidine added. The results were plotted graphically and appear as Figure 5.
# B16 melanoma cells = assay: In vivo augmentation of BCNU anti-tumor activity in a B16 melanoma lung metastasis model; set-up: species or system C57Bl mice; conditions: for (% control) of lung metastases / Numbers of lung metastases / Median Survival: intraperitoneal day 1; for (% control) of lung metastases / Numbers of lung metastases: lungs at day 14; for Numbers of lung metastases: saline 241; for Median Survival: saline 19; for Size of lung metastases: Macro means visually determined, Micro means microscopically only
# Experimental: 5 x 10⁴ B16 melanoma cells were injected intravenously into the tail vein of C57Bl mice at day 0. The mice were treated with either saline, 32mg/kg of DPPE, 1mg of BCNU or a combination of 32mg/kg of DPPE and 1mg of BCNU, by intraperitoneal injection on day 1. The DPPE was administered 60 minutes before the BCNU.
# In each group, six of the twelve animals were sacrificed at day 14 and lungs were removed for determination of metastasis. The remaining six animals were followed to death. The numbers and size of the lung metastases were determined by visual or microscope count.
# DBA/2 mice = assay: In vivo host cytoprotection from a lethal dose of adriamycin; conditions: DPPE 2 mg/kg 1 hour (n=12) or 15 minutes (n=6) prior to 15 mg/kg of adriamycin, after 30 days
# Experimental: Saline or DPPE (2 mg/kg) were administered to DBA/2 mice 1 hour (n=12) or 15 minutes (n=6) prior to administration of 15 mg/kg of adriamycin. The number of survivors after 30 days was determined.
# prostaglandin (PG)I₂ = assay: Prostaglandin level in the gut after DPPE treatment; type: in vivo
# Source text: In addition, the antagonism results in an increase in the levels of prostaglandins (natural substances which are known to protect tissues from various injurious agents) in the tissue. For example, DPPE treatment results in an increase by 500% in prostaglandin (PG)I₂, a protective prostaglandin, in the gut.
# [5] = administered five hours or more prior to the chemotherapeutic agent; cited from earlier work
# [6] = Adriamycin lethal dose (20mg/kg) alone, 24h
# [7] = Adriamycin lethal dose (20mg/kg) alone, 48h
# [8] = DPPE 0.2 mg/kg daily, patients treated with Adriamycin (60 mg/m²)
# [9] = 25 µM DPPE, Concanavalin A 5 µg/ml, 10% fetal calf serum, Figure 1
smiles,measurement,setting,value
"COc1cccc2c1C(=O)c1c(O)c3c(c(O)c1C2=O)C[C@@](O)(C(C)=O)C[C@@H]3O[C@H]1C[C@H](N)[C@H](O)[C@H](C)O1 [Daunorubicin, daunorubicin]",No. Cures (n=6),B16f10 melanoma cells; followed 60 days,0
same,Median Survival,"B16f10 melanoma cells; followed to death or 60 days, saline 17",25 days
"O=c1[nH]cc(F)c(=O)[nH]1 [5FU, 5-fluorouracil]",CFU-C/10⁴ cells (No. of bone marrow colonies),bone marrow progenitors; 24h,0.2 CFU-C/10⁴ cells
same,R.C.S. (Relative Cell Survival),bone marrow progenitors; 24h,0.006
same,CFU-C/10⁴ cells (No. of bone marrow colonies),bone marrow progenitors; 48h,0.09 CFU-C/10⁴ cells
same,R.C.S. (Relative Cell Survival),bone marrow progenitors; 48h,0.002
"COc1cccc2c1C(=O)c1c(O)c3c(c(O)c1C2=O)C[C@@](O)(C(=O)CO)C[C@@H]3O[C@H]1C[C@H](N)[C@H](O)[C@H](C)O1 [Adriamycin, doxorubicin]",Number of Mice Tumor-Free (n=12),C-3 fibrosarcoma cells; Adriamycin 2mg/kg alone,0
same,CFU-C/10⁴ cells,bone marrow progenitors; [6],1.8 CFU-C/10⁴ cells
same,R.C.S.,bone marrow progenitors; [6],0.04
same,CFU-C/10⁴ cells,bone marrow progenitors; [7],0.65 CFU-C/10⁴ cells
same,R.C.S.,bone marrow progenitors; [7],0.006
"CCN(CC)CCOc1ccc(Cc2ccccc2)cc1 [DPPE, N,N-diethyl-2-[4-(phenylmethyl)-phenoxy]ethanamine]",cytotoxicity to the virally-infected cells,"[1]; 25 µM of DPPE, S-10 cells, Figures 3 and 4",approximately 50%
same,thymidine incorporation adjusted for cell number,"[1]; at cytotoxic concentrations of DPPE (10 to 25 µM), 0.25 nM ³H-thymidine",increased
same,ulcer formation,ulcer formation,completely block
same,Number of Mice Tumor-Free (n=12),C-3 fibrosarcoma cells; DPPE 50mg/kg alone,0
same,stimulation of antibody formation by interleukin-2,certain B cells,blocks
same,mouth ulceration,"[2]; 72-hour infusion of low dose DPPE, one patient",prevented
same,acute and delayed gastrointestinal side effects of Adriamycin,"[2]; DPPE 0.2 mg/kg daily as a 72-hour infusion, Adriamycin 60 mg/m², four patients, two treatments each",block completely
same,anti-emetic effect,"[2]; DPPE 0.2 mg/kg daily, 24-hour infusion, first 24 to 48 hours following Adriamycin, delayed nausea, vomiting and/or anorexia at 72 or 96 hours in many patients",effective anti-emetic therapy
same,"amelioration of nausea, vomiting, anorexia and stomatitis",[2]; [8],over 90%
same,"patients in whom nausea, vomiting, anorexia and stomatitis were prevented or ameliorated",[2]; [8],6/6
same,toxicity,"[2]; DPPE alone, 6 mg/kg administered IV over 2 hours",significant toxicity was absent
same,highest non-toxic dosage,"[2]; DPPE alone, given intravenously over a one-hour period",4 mg/kg
same,"effect on platelets, hemoglobin or biochemistry","[2]; human, in vivo",No significant effect
same,CNS toxicity,"[2]; human, in vivo, 6 mg/kg",dose limiting
same,drop in body core temperature,"[2]; human, in vivo, 6 mg/kg",1-2 °C
same,threshold for CNS toxicity,"[2]; human, in vivo, 1 h",240 mg/M²
same,changes in biochemistries or blood counts,"[2]; human, in vivo, iv, 0.2 mg/kg",not to cause any significant changes
same,clinical side effects,"[2]; human, in vivo, iv, 0.2 mg/kg",entirely without clinical side effects
same,antiemetic effect against Adriamycin,"[2]; single iv doses of DPPE (1, 2, 4 mg/kg) given over 1 hour",significantly antiemetic
same,effect on malignant cells in vitro,malignant cells,damages and/or kills
same,cell survival,[3]; [9],does not adversely affect
same,thymidine incorporation into DNA,[3]; [9],completely blocks
same,concentrations of DPPE which inhibited DNA synthesis,"[3]; Concanavalin A 2.5 µg/ml, 2% fetal calf serum, Figure 2",5 µm
same,cytotoxicity,"[3]; at 5 µm DPPE, Concanavalin A 2.5 µg/ml, 2% fetal calf serum, Figure 2",no significant cytotoxicity
same,proliferation of T-lymphocytes,[3]; in the presence of Concanavalin A,completely antagonize
same,cytotoxicity and thymidine incorporation compared with S-10 cells,[4],Analogous results
same,(% control) of lung metastases,B16 melanoma cells; DPPE 32mg/kg alone,91%
same,Numbers of lung metastases,B16 melanoma cells; DPPE 32mg/kg alone,219
same,Median Survival,B16 melanoma cells; DPPE 32mg/kg alone,21 days
same,Size of lung metastases,B16 melanoma cells; DPPE 32mg/kg alone,All Macro
same,Number of Survivors,DBA/2 mice; saline group 4/12,13/18
same,Number of Survivors (percent),DBA/2 mice; saline group 33%,72%
same,CFU-C/10⁴ cells,"bone marrow progenitors; DPPE 4mg/kg alone, 24h",42.3 CFU-C/10⁴ cells
same,R.C.S.,"bone marrow progenitors; DPPE 4mg/kg alone, 24h",0.97
same,CFU-C/10⁴ cells,"bone marrow progenitors; DPPE 4mg/kg alone, 48h",41.3 CFU-C/10⁴ cells
same,R.C.S.,"bone marrow progenitors; DPPE 4mg/kg alone, 48h",0.97
same,increase in prostaglandin (PG)I₂ in the gut,prostaglandin (PG)I₂,500%
same,threshold for CNS toxicity,mice,240 mg/M²
N[C@H](CO)Cc1c[nH]cn1 [L-histidinol],effective doses,[5],approximately 1000 mg/kg of tissue
"O=NN(CCCl)C(=O)NCCCl [BCNU, reference compound]",(% control) of lung metastases,B16 melanoma cells; BCNU 1mg alone,60%
same,Numbers of lung metastases,B16 melanoma cells; BCNU 1mg alone,144
same,Median Survival,B16 melanoma cells; BCNU 1mg alone,24 days
same,Size of lung metastases,B16 melanoma cells; BCNU 1mg alone,All Macro

# Reference: patent EP0563127B1, “IMPROVED TREATMENT METHOD FOR CANCER” (priority 1990, dated 1992)
